Activity calls are given as the source filed them. The rule behind the calls is not given here.
How the values were obtained:
Neutrophil [1] = experiment: Induction of ROS production in BALB/c mouse neutrophils at 10 to 20 uM incubated for 2 hrs by DCFH-DA staining based analysis; type: functional, cell-based; settings: dose 10-20 µM
Neutrophil [2] = experiment: Induction of phagocytosis in BALB/c mouse neutrophils cultured with CFSE-labeled Escherichia coli ATCC 25922 at 10 uM pretreated for 1 hr followed by bacterial exposure measured after 1.5 hrs by fluorescence microscopy; type: functional, cell-based; settings: time 2.5 hrs
RAW264.7 [3] = experiment: Induction of cell migration in Aprepitant-treated mouse RAW264.7 cells at 5 to 20 uM incubated for 24 hrs by crystal violet staining based microscopy; type: functional; settings: dose 5-20 µM
RAW264.7 [4] = experiment: Induction of phagocytosis in mouse RAW264.7 cells assessed as increase in neutral red dye uptake by measuring optical density at 540 nm at 20 uM incubated for 24 hrs followed by dye addition measured after 4 hrs by absorbance based assay (reference value: 0.073); type: functional; settings: time 28 hrs
RAW264.7 [5] = experiment: Induction of phagocytosis in mouse RAW264.7 cells cultured with Escherichia coli ATCC 25922 assessed as number of engulfed bacteria at 5 uM incubated for 24 hrs followed by bacterial exposure measured after 1 hr by plate counting method (reference value: 225); type: functional; settings: time 25 hrs
RAW264.7 [6] = experiment: Induction of phagocytosis in mouse RAW264.7 cells cultured with Escherichia coli ATCC 25922 assessed as number of surviving engulfed bacteria at 20 uM incubated for 24 hrs followed by bacterial exposure for 1 hr and further treated with gentamycin for 2 hrs by plate counting method (reference value: 37); type: functional
RAW264.7 [7] = experiment: Effect on total ERK level in mouse RAW264.7 cells at 2.5 to 20 uM incubated for 4 hrs by Western blot analysis; type: functional, cell-based; settings: dose 2.5-20 µM
RAW264.7 [8] = experiment: Effect on total JNK level in mouse RAW264.7 cells at 2.5 to 20 uM incubated for 4 hrs by Western blot analysis; type: functional, cell-based; settings: dose 2.5-20 µM
RAW264.7 [9] = experiment: Upregulation of phosphorylated ERK level in Aprepitant-treated mouse RAW264.7 cells at 2.5 to 20 uM incubated for 4 hrs by Western blot analysis; type: functional, cell-based; settings: dose 2.5-20 µM
HaCaT [10] = experiment: Induction of cell migration in Aprepitant-treated human HaCaT cells assessed as healing rate at 20 uM measured after 48 hrs by scratch healing assay (reference value: 63.1 %); type: functional
HaCaT [11] = experiment: Induction of cell migration in Mitomycin C-treated human HaCaT cells assessed as healing rate at 20 uM measured after 24 hrs by scratch healing assay (reference value: 21.3 %); type: functional
HaCaT [12] = experiment: Induction of cell migration in Mitomycin C-treated human HaCaT cells assessed as healing rate at 20 uM measured after 48 hrs by scratch healing assay (reference value: 25.7 %); type: functional
HUVEC [13] = experiment: Induction of cell migration in Aprepitant-treated HUVEC cells assessed as healing rate at 20 uM measured after 48 hrs by scratch healing assay (reference value: 57.2 %); type: functional, Homo sapiens
HUVEC [14] = experiment: Induction of cell migration in HUVEC cells assessed as actin stress fiber formation at peripheral side of cytoplasmic membrane at 20 uM measured after 24 hrs by immunofluorescence microscopy; type: functional, cell-based; settings: Homo sapiens
Aorta = experiment: Ex vivo angiogenic activity in C57BL/6 mouse aortic ring assessed as increase in sprouting by measuring vessel outgrowth area at 10 uM measured for 7 days by microscopic analysis relative to control; type: functional; settings: time 7 day
[15] = Induction of wound healing in BALB/c mouse model of full-thickness wounds at 50 ug/ml, TOP bid measured after 2 days (reference value: 30.4 %); type: functional; settings: dose 50 µg/ml, time 2 day
[16] = Induction of wound healing in BALB/c mouse model of full-thickness wounds at 50 ug/ml, TOP bid measured after 8 days (reference value: 81.0 %); type: functional; settings: dose 50 µg/ml, time 8 day
[17] = Induction of wound healing in BALB/c mouse model of full-thickness wounds at 200 ug/ml, TOP bid measured after 8 days (reference value: 81.0 %); type: functional; settings: dose 200 µg/ml, time 8 day
[18] = Toxicity in BALB/c mouse model of full-thickness wounds assessed as animal death at 50 to 200 ug/ml, TOP bid measured upto 8 days; settings: in vivo, topical_or_ocular, 192 h, dose 50-200 µg/ml, time < 8 day
[19] = Toxicity in BALB/c mouse model of full-thickness wounds assessed as adverse effect in behaviour at 50 to 200 ug/ml, TOP bid measured upto 8 days; settings: in vivo, topical_or_ocular, 192 h, dose 50-200 µg/ml, time < 8 day
Mus musculus [20] = species: Mus musculus; experiment: Induction of wound healing in BALB/c mouse model of full-thickness wounds assessed as increase in granulation tissue formation at 50 ug/ml, TOP bid measured after 8 days by H and E staining based analysis; type: functional; settings: dose 50.0 µg/ml, time 8.0 day
Splenic fibroblast [21] = experiment: Effect on cell proliferation in human […] fibroblasts at 5 to 40 uM incubated for 24 hrs by MTT assay; type: functional, cell-based; settings: dose 5-40 µM
NIH3T3 = experiment: Effect on cell migration in mouse 3T3 cells at 20 uM incubated upto 48 hrs by scratch healing assay; type: functional, cell-based
Splenic fibroblast [22] = experiment: Effect on TGF-1beta production in human […] fibroblasts at 5 to 40 uM incubated for 24 hrs by ELISA; type: functional, cell-based; settings: dose 5-40 µM
Splenic fibroblast [23] = experiment: Effect on Smad3 activation in human […] fibroblasts upto 20 uM by Western blot analysis; type: functional, cell-based
Mus musculus [24] = species: Mus musculus; experiment: Induction of wound healing in BALB/c mouse model of full-thickness wounds assessed as alignment of collagen fibers close to normal skin at 50 to 200 ug/ml, TOP bid measured after 8 days by Masson's Trichome staining based analysis; type: functional; settings: dose 50-200 µg/ml, time 8.0 day
Mus musculus [25] = species: Mus musculus; experiment: Induction of wound healing in BALB/c mouse model of full-thickness wounds assessed as increase in TGF-1beta production in wound skin at 50 to 200 ug/ml, TOP bid measured after 2 to 4 days by ELISA; type: functional; settings: dose 50-200 µg/ml, time 2-4 day
Mus musculus [26] = species: Mus musculus; experiment: Induction of wound healing in BALB/c mouse model of full-thickness wounds assessed as increase in TGF-1beta production in wound skin at 50 to 200 ug/ml, TOP bid measured after 8 days by ELISA; type: functional; settings: dose 50-200 µg/ml, time 8.0 day
Mus musculus [27] = species: Mus musculus; experiment: Induction of wound healing in BALB/c mouse model of full-thickness wounds assessed as increase in phosphorylated Smad3 level in wound skin at 50 to 200 ug/ml, TOP bid measured after 4 days by Western blot analysis; type: functional; settings: dose 50-200 µg/ml, time 4.0 day
Mus musculus [28] = species: Mus musculus; experiment: Induction of wound healing in BALB/c mouse model of full-thickness wounds assessed as increase in ratio of phosphorylated Smad3 level to total Smad3 level in wound skin at 50 to 200 ug/ml, TOP bid measured after 8 days by Western blot analysis; type: functional; settings: dose 50-200 µg/ml, time 8.0 day
Neutrophil [29] = experiment: Induction of wound healing in BALB/c mouse model of full-thickness wounds assessed as increase in number of neutrophil infiltration in wound skin at 50 ug/ml, TOP bid measured after 2 days by IHC analysis; type: functional, cell-based; settings: dose 50.0 µg/ml, time 2.0 day
[30] = (§1) Induction of wound healing in BALB/c mouse model of full-thickness wounds assessed as recruitment of M1-type macrophages in wound skin at 50 ug/ml, TOP bid measured after 2 days by flow cytometry (reference value: 60.9 %); type: functional; settings: dose 50 µg/ml, time 2 day
Mus musculus [31] = species: Mus musculus; experiment: as §1; type: functional; settings: dose 50.0 µg/ml, time 2.0 day

## H-KPNPDRFYGLM-NH2
Neutrophil [1]
  Activity: Active
Neutrophil [2]
  Activity: Active
RAW264.7 [3]
  Activity: inactive
RAW264.7 [4]
  OD: 0.109
RAW264.7 [5]
  Activity: 302
RAW264.7 [6]
  Activity: 20
RAW264.7 [7]
  Activity: inactive
RAW264.7 [8]
  Activity: inactive
RAW264.7 [9]
  Activity: inactive
HaCaT [10]
  Activity: 76.1%
HaCaT [11]
  Activity: 40.2%
HaCaT [12]
  Activity: 53%
HUVEC [13]
  Activity: 65%
HUVEC [14]
  Activity: Active
Aorta
  Activity: 117.3%
[15]
  Activity: 38.9%
[16]
  Activity: 93.1%
[17]
  Activity: 100%
[18]
  Activity: Non-Toxic
[19]
  Activity: Non-Toxic
Mus musculus [20]
  Activity: Active
Splenic fibroblast [21]
  Activity: inactive
NIH3T3
  Activity: inactive
Splenic fibroblast [22]
  Activity: inactive
Splenic fibroblast [23]
  Activity: inactive
Mus musculus [24]
  Activity: Active
Mus musculus [25]
  Activity: Active
Mus musculus [26]
  Activity: inactive
Mus musculus [27]
  Activity: Active
Mus musculus [28]
  Activity: inactive
Neutrophil [29]
  Activity: Active
[30]
  Activity: 79.2%
Mus musculus [31]
  Activity: Active
